Measurements reported in patent EP0973746B1, “SUBSTITUTED 3-CYANO QUINOLINES” (Wyeth Holdings Corporation, priority 1997, dated 1998).
In brackets after ≈: the same amount, converted by molar mass. Like-named read-outs stand apart in the source and are kept apart here.

Tests used:
[1] = tested on: A431; experiment: Inhibition of cell growth by incorporation of [3H]-thymidine, A431; type: cell-based, human; details: Homo sapiens
[2] = tested on: NHEK; experiment: Inhibition of cell growth by incorporation of [3H]-thymidine, NHEK; type: cell-based, human; details: Homo sapiens, read-out: IC50 NHEK
[3] = tested on: HTB161; experiment: Inhibition of cancer cell growth as measured by cell number, HTB161; type: cell-based; details: Homo sapiens, read-out: IC50 HTB161
[4] = tested on: A27805; experiment: Inhibition of cancer cell growth as measured by cell number, A27805; type: cell-based; details: Homo sapiens, read-out: IC50 A27805
[5] = tested on: A2780DDP; experiment: Inhibition of cancer cell growth as measured by cell number, A2780DDP; type: cell-based; details: Homo sapiens, read-out: IC50 A2780DDP
[6] = tested on: MIP; experiment: Inhibition of cancer cell growth as measured by cell number, MIP; type: cell-based; details: Homo sapiens; cell number, Sulforhodamine B, 48 hours exposure; Table 4; read-out: IC50 MIP
[7] = tested on: SW620; experiment: Inhibition of cancer cell growth as measured by cell number, SW620; type: cell-based, human; details: Homo sapiens, SW-620, 48 h, Table 4;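 note: SW620 was included as a cell line with little or no EGFR or HER2/neu expression, in contrast to receptor-overexpressing lines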
Text: (§1) The cell lines were chosen since they overexpressed epidermal growth factor receptor (EGFR) (i.e. A431) or HER2/neu (SKBR3), or had little to no expression of the these receptors (SW620, LOX, MCF7).

[8] = tested on: COLO205; experiment: Inhibition of cancer cell growth as measured by cell number, COLO205; type: cell-based; details: Homo sapiens, read-out: IC50 COLO205
[9] = tested on: CX1; experiment: Inhibition of cancer cell growth as measured by cell number, CX1; type: cell-based; details: Homo sapiens, read-out: IC50 CX1
[10] = tested on: CACO2; experiment: Inhibition of cancer cell growth as measured by cell number, CACO2; type: cell-based; details: Homo sapiens, read-out: IC50 CACO2
[11] = tested on: HCT15; experiment: Inhibition of cancer cell growth as measured by cell number, HCT15; type: cell-based; details: Homo sapiens, read-out: IC50 HCT15
[12] = tested on: LS174T; experiment: Inhibition of cancer cell growth as measured by cell number, LS174T; type: cell-based; details: Homo sapiens
[13] = tested on: SW948; experiment: Inhibition of cancer cell growth as measured by cell number, SW948; type: cell-based; details: Homo sapiens, read-out: IC50 SW948
[14] = tested on: CCL228; experiment: Inhibition of cancer cell growth as measured by cell number, CCL228; type: cell-based; details: Homo sapiens, read-out: IC50 CCL228
[15] = tested on: MCF7; experiment: Inhibition of cancer cell growth as measured by cell number, MCF7; type: cell-based, human; details: Homo sapiens, MCF7, 48 h, Table 5;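 note: MCF7 was included as a line with little or no EGFR or HER2/neu expression, in contrast to the receptor-overexpressing lines of the panel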
Text: as §1

[16] = tested on: B7474; experiment: Inhibition of cancer cell growth as measured by cell number, B7474; type: cell-based; details: Homo sapiens, read-out: IC50 B7474
[17] = tested on: T47D; experiment: Inhibition of cancer cell growth as measured by cell number, T47D; type: cell-based; details: Homo sapiens
[18] = tested on: LX1; experiment: Inhibition of cancer cell growth as measured by cell number, LX1; type: cell-based; details: Homo sapiens, read-out: IC50 LX1
[19] = tested on: A549; experiment: Inhibition of cancer cell growth as measured by cell number, A549; type: cell-based; details: Homo sapiens, read-out: IC50 A549
[20] = tested on: LOX; experiment: Inhibition of cancer cell growth as measured by cell number, LOX; type: cell-based, human; details: Homo sapiens, LOX, 48 h, Table 6;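 note: LOX cells served as a line with low or absent EGFR and HER2/neu expression, in contrast to receptor-overexpressing lines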
Text: as §1

[21] = tested on: A431; experiment: Inhibition of cancer cell growth as measured by cell number, A431; type: cell-based, human; details: Homo sapiens, A-431, 48 h, Table 6;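 note: human A431 line, picked because it overexpresses epidermal growth factor receptor (EGFR)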
Text: as §1

[22] = tested on: NEC; experiment: Inhibition of cancer cell growth as measured by cell number, NEC; type: cell-based; details: Homo sapiens, read-out: IC50 NEC
[23] = tested on: DU145; experiment: Inhibition of cancer cell growth as measured by cell number, DU145; type: cell-based; details: Homo sapiens, read-out: IC50 DU145
[24] = tested on: PC3; experiment: Inhibition of cancer cell growth as measured by cell number, PC3; type: cell-based; details: Homo sapiens, read-out: IC50 PC3
[25] = tested on: LNCAP; experiment: Inhibition of cancer cell growth as measured by cell number, LNCAP; type: cell-based; details: Homo sapiens
[26] = tested on: HL60; experiment: Inhibition of cancer cell growth as measured by cell number, HL60; type: cell-based; details: Homo sapiens, read-out: IC50 HL60
[27] = tested on: CCRF-CFM; experiment: Inhibition of cancer cell growth as measured by cell number, CCRF-CFM; type: cell-based; details: Homo sapiens, read-out: IC50 CCRF-CFM
[28] = tested on: SKBR3; experiment: Inhibition of cancer cell growth as measured by cell number, SKBR3; type: cell-based, human; details: Homo sapiens, Table 7;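 note: SK-BR-3 cells were selected as a line overexpressing HER2/neu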
Text: as §1

[29] = target: recombinant human MEK 1 (MAPKK) and recombinant human ERK2 (MAPK); experiment: Mitogen Activated Protein Kinase (MAPK) assay, two component coupled MEK 1 / ERK2; type: biochemical; details: separate entries for the same compound = evaluated more than one time;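 note: MEK 1-activated ERK2 phosphorylates MBP or Myc peptide with 33P-ATP, filter capture and scintillation counting, inhibitor preincubated with ERK2 30 min at 0 °C, inhibition relative to uninhibited control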
Experimental: To evaluate inhibitors of the MAP (mitogen activated protein) kinase a two component coupled standard pharmacological test procedure, which measures phosphorylation of a serine/threonine residue in an appropriate sequence in the substrate in the presence and absence of a putative inhibitor, was used. Recombinant human MEK 1 (MAPKK) was first used to activate recombinant human ERK2 (MAPK) and the activated MAPK (ERK) was incubated with substrate (MBP peptide or MYC peptide) in the presence of ATP, Mg^+2 and radiolabeled ^33P ATP. The phosphorylated peptide was captured on a P 81 phosphocellulose filter (paper filter or embedded in microtiter plate) washed and counted by scintillation methods.
The peptide substrates used in the assay are MBP, peptide substrate ([sequence]), or synthetic Myc substrate, ([sequence]•5 TFA. The recombinant enzymes used were prepared as GST fusion proteins of human ERK 2 and human MEK 1. Inhibitor samples were prepared as 10X stocks in 10% DMSO and an appropriate aliquot was used to deliver either 10 ug/ml for a single point screening dose or 100, 10, 1, and 0.1 uM final concentration for a dose response curve. Final DMSO concentrations were less than or equal to 1%.
The reaction was run as follows in 50 mM Tris kinase buffer, pH 7.4 in a reaction volume of 50 ul. The appropriate volume of kinase buffer and inhibitor sample was added to the tube. Appropriate dilution of enzyme was delivered to give 2-5 ug recombinant MAPK (Erk ) per tube. The inhibitor was incubated with MAPK (Erk) for 30 min at 0 deg. […] Recombinant Mek (MAPKK) ( 0.5-2.5 ug) or fully activated Mek (0.05-0.1 units) was added to activate the Erk and incubated for 30 min at 30° C. […] Samples were incubated at 30°C for 30 minutes and the reaction was stopped by adding 25 µl of ice cold 10 %TCA .After samples were chilled on ice for 30 min, 20 µl of sample was transferred onto P 81 phosphocellulose filter paper or appropriate MTP with embedded P 81 filter. Filter papers or MTP were washed 2 times with a large volume of 1% acetic acid, then 2 times with water. The filters or MTP were briefly air dried before addition of scintillant and samples were counted in the appropriate scintillation counter set up for reading ^33P isotope.
The raw data was captured as cpm. Sample replicates were averaged and corrected for background count. Mean cpm data was tabulated by group and % inhibition by a test compound was calculated as (corrected cpm control- corrected. cpm sample/control) X 100 = % inhibition.

[30] = target: epidermal growth factor receptor kinase (Homo sapiens, UniProt P00533); experiment: biochemical
[31] = tested on: human epidermoid tumors (A431); experiment: In vivo inhibition of the growth of human epidermoid tumors (A431); details: 80 mg/kg administered on days 1, 5, and 9, IP
Experimental: Representative compounds of this invention (listed below) were evaluated in an in vivo standard pharmacological test procedure which measured its ability to inhibit the growth of human epidermoid tumors. […] BALB/c nu/nu female mice (Charles River, Wilmington, MA) were used in this in vivo standard pharmacological test procedure. A unit of 5 X 10^6 cells were injected SC into mice. When tumors attained a mass of between 100 and 150 mg, the mice were randomized into treatment groups (day zero). […] Control animals received no drug. Tumor mass was determined every 7 days [(length X width^2)/2] for 28 days post staging. Relative tumor growth (Mean tumor mass on days 7, 14, 21, and 28 divided by the mean tumor mass on day zero) is determined for each treatment group.

[32] = cell number, Sulforhodamine B, 48 hours exposure, Table 4
[33] = cell number, Sulforhodamine B, 48 hours exposure, Table 6

Sequence of epidermal growth factor receptor kinase (P00533 25-1210): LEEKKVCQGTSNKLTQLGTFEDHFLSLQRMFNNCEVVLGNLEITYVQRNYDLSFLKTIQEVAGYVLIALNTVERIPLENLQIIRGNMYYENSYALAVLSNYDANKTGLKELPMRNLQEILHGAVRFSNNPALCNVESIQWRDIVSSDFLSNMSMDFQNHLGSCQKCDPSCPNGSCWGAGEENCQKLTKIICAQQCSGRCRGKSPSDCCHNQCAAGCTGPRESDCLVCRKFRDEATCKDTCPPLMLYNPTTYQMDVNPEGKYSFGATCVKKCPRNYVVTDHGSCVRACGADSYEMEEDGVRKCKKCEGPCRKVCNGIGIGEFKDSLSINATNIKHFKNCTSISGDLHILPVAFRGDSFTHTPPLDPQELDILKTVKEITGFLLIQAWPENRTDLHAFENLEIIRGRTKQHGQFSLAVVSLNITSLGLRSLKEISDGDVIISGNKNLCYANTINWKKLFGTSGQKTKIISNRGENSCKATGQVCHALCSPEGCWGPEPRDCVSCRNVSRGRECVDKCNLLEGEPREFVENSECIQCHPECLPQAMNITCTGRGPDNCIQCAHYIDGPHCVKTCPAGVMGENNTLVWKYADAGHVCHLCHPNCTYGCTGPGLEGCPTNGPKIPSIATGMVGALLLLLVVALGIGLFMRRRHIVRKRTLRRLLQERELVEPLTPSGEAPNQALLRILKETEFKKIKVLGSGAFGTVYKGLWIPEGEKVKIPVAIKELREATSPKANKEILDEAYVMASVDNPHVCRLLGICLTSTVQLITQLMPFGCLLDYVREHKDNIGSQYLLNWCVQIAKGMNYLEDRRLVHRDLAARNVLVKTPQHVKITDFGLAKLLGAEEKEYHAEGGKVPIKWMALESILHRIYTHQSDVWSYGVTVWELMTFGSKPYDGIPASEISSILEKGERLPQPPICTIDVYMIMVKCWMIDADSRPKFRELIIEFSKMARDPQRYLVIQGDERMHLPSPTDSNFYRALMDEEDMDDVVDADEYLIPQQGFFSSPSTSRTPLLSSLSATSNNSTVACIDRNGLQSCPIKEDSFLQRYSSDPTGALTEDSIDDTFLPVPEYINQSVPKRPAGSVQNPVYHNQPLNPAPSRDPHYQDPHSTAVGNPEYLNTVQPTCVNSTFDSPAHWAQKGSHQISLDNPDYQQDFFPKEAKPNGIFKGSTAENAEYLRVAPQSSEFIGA

CCCC(=O)Nc1ccc2ncc(C#N)c(Nc3cccc(Br)c3)c2c1 [Example 17, N-[4-[(3-Bromophenyl)amino]-3-cyano-6-quinolinyl] butanamide]
IC50 ([1]; A-431, [3H]-thymidine incorporation, A431, read-out: IC50 A431): 25 µM
IC50 ([2]; [3H]-thymidine incorporation): 9 µM
IC50 [3, 32]: 7.89 µg/mL (≈ 19.3 µM)
IC50 [4, 32]: 9.8 µg/mL (≈ 23.9 µM)
IC50 [5, 32]: 60.4 µg/mL (≈ 147 µM)
IC50 [6]: 100 µg/mL (≈ 244 µM)
IC50 ([7]; cell number, Sulforhodamine B, 48 hours exposure, read-out: IC50 SW620): > 100 µg/mL
IC50 ([8]; COLO 205, cell number, Sulforhodamine B, 48 hours exposure, Table 4): > 100 µg/mL
IC50 ([9]; CX-1, cell number, Sulforhodamine B, 48 hours exposure, Table 4): 81.9 µg/mL (≈ 200 µM)
IC50 ([10]; Caco-2, cell number, Sulforhodamine B, 48 hours exposure, Table 5): 5.63 µg/mL (≈ 13.8 µM)
IC50 ([11]; HCT-15, cell number, Sulforhodamine B, 48 hours exposure, Table 5): 98.9 µg/mL (≈ 242 µM)
IC50 ([12]; cell number, Sulforhodamine B, 48 hours exposure, Table 5, read-out: IC50 LS174T): 87 µg/mL (≈ 213 µM)
IC50 ([13]; SW948, cell number, Sulforhodamine B, 48 hours exposure, Table 5): > 100 µg/mL
IC50 ([14]; cell number, Sulforhodamine B, 48 hours exposure, Table 5): > 100 µg/mL
IC50 ([15]; cell number, Sulforhodamine B, 48 hours exposure, read-out: IC50 MCF7): 68.2 µg/mL (≈ 167 µM)
IC50 [16, 33]: 95.7 µg/mL (≈ 234 µM)
IC50 ([17]; cell number, Sulforhodamine B, 48 hours exposure, Table 6, read-out: IC50 T47D): > 100 µg/mL
IC50 ([18]; LX-1, cell number, Sulforhodamine B, 48 hours exposure, Table 6): > 100 µg/mL
IC50 ([19]; A549, cell number, Sulforhodamine B, 48 hours exposure, Table 6): > 100 µg/mL
IC50 ([20]; cell number, Sulforhodamine B, 48 hours exposure, read-out: IC50 LOX): 74.2 µg/mL (≈ 181 µM)
IC50 ([21]; cell number, Sulforhodamine B, 48 hours exposure, read-out: IC50 A431): 38.1 µg/mL (≈ 93 µM)
IC50 [22, 33]: > 100 µg/mL
IC50 ([23]; DU-145, cell number, Sulforhodamine B, 48 hours exposure, Table 7): 7.81 µg/mL (≈ 19.1 µM)
IC50 ([24]; PC-3, cell number, Sulforhodamine B, 48 hours exposure, Table 7): > 100 µg/mL
IC50 ([25]; cell number, Sulforhodamine B, 48 hours exposure, Table 7, read-out: IC50 LNCAP): 90 µg/mL (≈ 220 µM)
IC50 ([26]; HL-60, cell number, Sulforhodamine B, 48 hours exposure, Table 7): > 100 µg/mL
IC50 ([27]; cell number, Sulforhodamine B, 48 hours exposure, Table 7): > 100 µg/mL
IC50 ([28]; SK-BR-3, cell number, Sulforhodamine B, 48 hours exposure, read-out: IC50 SKBR3): 79.7 µg/mL (≈ 195 µM)
IC50 [29]: > 100 µM
IC50 [30]: 9 µM

C=CC(=O)Nc1ccc2ncc(C#N)c(Nc3cccc(Br)c3)c2c1 [Example 18, N-[4-[(3-Bromophenyl)amino]-3-cyano-6-quinolinyl]-2-propenamide]
IC50 ([1]; A-431, read-out: IC50 A431): 1e-05 µM
IC50 [2]: 0.007 µM
IC50 ([3]; 48 h): 0.415 µg/mL (≈ 1.05 µM)
IC50 ([4]; 48 h): 0.628 µg/mL (≈ 1.6 µM)
IC50 ([5]; 48 h): 0.884 µg/mL (≈ 2.25 µM)
IC50 [6]: 1.47 µg/mL (≈ 3.74 µM)
IC50 ([7]; read-out: IC50 SW620, cell number, Sulforhodamine B, 48 hours exposure): 1.4 µg/mL (≈ 3.55 µM)
IC50 ([8]; COLO 205, 48 h): 1.9 µg/mL (≈ 4.84 µM)
IC50 ([9]; CX-1, 48 h): 1.56 µg/mL (≈ 3.97 µM)
IC50 ([10]; Caco-2, 48 h): 0.576 µg/mL (≈ 1.46 µM)
IC50 ([11]; HCT-15, 48 h): 1.67 µg/mL (≈ 4.25 µM)
IC50 ([12]; 48 h, read-out: IC50 LS174T): 1.59 µg/mL (≈ 4.05 µM)
IC50 ([13]; SW948, 48 h): 1.94 µg/mL (≈ 4.93 µM)
IC50 ([14]; 48 h): 1.17 µg/mL (≈ 2.98 µM)
IC50 ([15]; read-out: IC50 MCF7, cell number, Sulforhodamine B, 48 hours exposure): 2.17 µg/mL (≈ 5.52 µM)
IC50 ([16]; 48 h): 0.152 µg/mL (≈ 0.387 µM)
IC50 ([17]; 48 h, read-out: IC50 T47D): 1.31 µg/mL (≈ 3.34 µM)
IC50 ([18]; LX-1, 48 h): 1.12 µg/mL (≈ 2.84 µM)
IC50 ([19]; A549, 48 h): 1.61 µg/mL (≈ 4.1 µM)
IC50 ([20]; read-out: IC50 LOX, cell number, Sulforhodamine B, 48 hours exposure): 0.0851 µg/mL (≈ 0.216 µM)
IC50 ([21]; read-out: IC50 A431, cell number, Sulforhodamine B, 48 hours exposure): 0.249 µg/mL (≈ 0.633 µM)
IC50 ([22]; 48 h): 1.41 µg/mL (≈ 3.6 µM)
IC50 ([23]; DU-145, 48 h): 0.322 µg/mL (≈ 0.818 µM)
IC50 ([24]; PC-3, 48 h): 2.35 µg/mL (≈ 5.97 µM)
IC50 ([25]; 48 h, read-out: IC50 LNCAP): 0.146 µg/mL (≈ 0.372 µM)
IC50 ([26]; HL-60, 48 h): 1.43 µg/mL (≈ 3.63 µM)
IC50 ([27]; 48 h): 1.04 µg/mL (≈ 2.64 µM)
IC50 ([28]; SK-BR-3, 48 h, read-out: IC50 SKBR3, cell number, Sulforhodamine B, 48 hours exposure): 1.85 µg/mL (≈ 4.71 µM)
reduced tumor size ([31]; day 7): 29%
reduced tumor size ([31]; day 14, p <0.01): 45%
Tumor growth versus control ([31]; days 21 and 28): not reduced versus control
IC50 [29]: > 100 µM
IC50 [30]: 2.1e-05 µM
